Laboratory results: PMC6027297, “A Short Peptide Inhibitor as an Activity-Based Probe for Matriptase-2” (Pharmaceuticals, 2018)
Residues, ends and D or L forms follow the SMILES beside them. *: point of attachment. Biotin = O=C1N[C@H]2[C@H](CS[C@H]2CCCCC(=O)*)N1; CH2Cl = ClC*

Assays:
[1] = target: T1, matriptase-2 (MT-2) (Homo sapiens, UniProt Q8IU80); assay: MT-2 activity on the surface of transfected HEK cells; type: cell-based
T1 construct: expressed in transfected cells; host or cells: stably transfected HEK cells
T1 sequence (Q8IU80 1-802 isoform Q8IU80-1): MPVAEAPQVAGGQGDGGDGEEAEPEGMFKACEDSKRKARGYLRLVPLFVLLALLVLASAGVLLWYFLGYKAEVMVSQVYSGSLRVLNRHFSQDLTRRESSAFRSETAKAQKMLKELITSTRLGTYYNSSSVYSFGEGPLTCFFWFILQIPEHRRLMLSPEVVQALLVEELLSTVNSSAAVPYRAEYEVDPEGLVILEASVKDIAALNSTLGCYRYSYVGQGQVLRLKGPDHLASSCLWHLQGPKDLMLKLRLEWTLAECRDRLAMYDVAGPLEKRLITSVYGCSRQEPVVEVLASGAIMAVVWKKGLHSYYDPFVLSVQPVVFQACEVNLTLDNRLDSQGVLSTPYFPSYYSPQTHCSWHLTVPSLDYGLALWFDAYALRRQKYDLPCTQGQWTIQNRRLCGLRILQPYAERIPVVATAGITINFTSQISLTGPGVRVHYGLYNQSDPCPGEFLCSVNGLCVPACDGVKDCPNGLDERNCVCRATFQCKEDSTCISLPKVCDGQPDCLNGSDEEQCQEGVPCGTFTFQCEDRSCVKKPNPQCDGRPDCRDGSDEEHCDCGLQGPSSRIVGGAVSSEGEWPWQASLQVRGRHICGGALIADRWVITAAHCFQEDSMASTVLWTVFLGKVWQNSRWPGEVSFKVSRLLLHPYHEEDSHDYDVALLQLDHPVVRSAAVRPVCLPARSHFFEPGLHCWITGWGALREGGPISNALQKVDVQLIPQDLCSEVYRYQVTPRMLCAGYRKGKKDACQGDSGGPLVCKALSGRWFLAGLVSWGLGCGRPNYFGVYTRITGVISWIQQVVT
Description: To further investigate the inhibitory potency of the probe in an in vitro approach, MT-2 activity was measured on the surface of stably transfected HEK cells expressing MT-2. Different probe concentrations were applied (Figure 3).
To measure MT-2 activity at the cell surface, HEK cells were seeded in 96 well cell culture plates and cultivated at 37 °C in DMEM medium until a confluence of approximately 70% was reached. After two washing steps with PBS and two further days of incubation in Opti-MEM medium at 37 °C, the culture medium was removed and the cells were washed two times with PBS. MT-2 assay buffer, biotin-RQRR-CMK and DMSO were then directly added to the cells before the reaction was started by adding substrate solution in a final concentration of 40 µM to each well. The conversion of the substrate by MT-2 was followed over a time of 50 min at 37 °C.

[2] = target: T2, matriptase-2 (MT-2) (Homo sapiens, UniProt Q8IU80); assay: MT-2 activity in supernatant of transfected HEK cells (fluorogenic substrate Boc-Gln-Ala-Arg-AMC); type: biochemical; details: probe 25–100 nM, Boc-Gln-Ala-Arg-AMC 40 µM, NaCl 150 mM, TRIS 50 mM, pH 8.0, 10 µg supernatant, 37 °C, 50 min, ex 340 nm, em 460 nm, non-linear regression of progress curves
T2 construct: This fragment consists of the catalytic and the three LDLRA domains of MT-2; made in house; host or cells: stably transfected HEK cells; concentrated culture supernatant, not purified
T2 sequence (Q8IU80 577-811 limits assumed): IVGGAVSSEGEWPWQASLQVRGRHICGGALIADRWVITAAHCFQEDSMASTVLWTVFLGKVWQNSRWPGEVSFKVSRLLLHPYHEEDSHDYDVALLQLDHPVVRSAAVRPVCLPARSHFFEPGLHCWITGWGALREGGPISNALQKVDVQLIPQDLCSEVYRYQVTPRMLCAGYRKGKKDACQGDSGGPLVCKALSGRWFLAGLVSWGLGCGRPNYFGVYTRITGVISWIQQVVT
T2 sequence (Q8IU80 438-576 partner limits assumed): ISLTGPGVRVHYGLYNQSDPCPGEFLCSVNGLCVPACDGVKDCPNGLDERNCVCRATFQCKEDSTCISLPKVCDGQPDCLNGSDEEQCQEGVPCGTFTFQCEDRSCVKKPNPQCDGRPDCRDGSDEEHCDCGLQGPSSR
Description: We used stably transfected human embryonic kidney (HEK) cells as the source for MT-2 [14]. […] Initially, the inhibitory potency of biotin-RQRR-CMK against MT-2 was assessed. For this purpose, we determined MT-2 activity in the supernatant of transfected HEK cells using a tripeptidic fluorogenic substrate. Probe concentrations of 25 nM to 100 nM were applied. Values kobs were obtained from non-linear regression of the progress curves of the supernatant experiment using the equation [P] = v0 (1 − e^−kobs t)/kobs + d(1) where [P] is the product concentration, v0 is the initial rate and d is the offset. […]
(§1) Stably transfected human embryonic kidney (HEK) cells expressing MT-2 or an empty vector construct were cultivated in Dulbecco’s Modified Eagle’s Medium (DMEM) containing fetal bovine serum (FBS) as well as penicillin and streptadivin in a concentration of […] at 37 °C. […] The protein concentration of the obtained protein mixture was determined by absorption measurements using Roti-Nanoquant Bradford solution.
Kinetic measurements were performed on a Fluostar Optima plate reader (BMG Lab Tech, Offenburg, Germany) in 96 well plates. […]

[3] = system: matriptase-2 (MT-2); assay: Western blot detection of biotin-RQRR-CMK-labeled MT-2 in HEK-cell supernatant (Strep-Tactin/AP); details: 30 µg HEK-MT-2 supernatant, 50 µM aprotinin for 2 h before probe (5 µM, 30 min)
Description: Similar to antibody staining addressing the myc tag, the biotin tag which was chemically introduced by biotin-RQRR-CMK was employed for the detection of MT-2 after western blotting. For this purpose, 30 µg of HEK-mock or HEK-MT-2 supernatants were incubated with or without biotin-RQRR-CMK prior to SDS-PAGE. After transfer to a nitrocellulose membrane, the blot was incubated with a conjugate of Strep-Tactin with alkaline phosphatase (AP). […] This band was only observed in the supernatant of HEK cells expressing active MT-2 that was treated with the probe.
(§2) To confirm that biotin-RQRR-CMK binds to the active site of MT-2, we added aprotinin to the supernatants of HEK-MT-2 cells. Treatment with aprotinin or DMSO was carried out 2 h prior to probe treatment. […] MT-2 was present in the supernatant of transfected HEK cells incubated with the probe and/or aprotinin (Figure 6: panel a).
as §1, with “solution. […]” for “solution.”

[4] = system: MT-2; details: active-site directed inhibitor of serine proteases; ref [1],[38]; cited from earlier work
Description: as §2

N=C(N)NCCC[C@H](NC(=O)[C@H](CCCNC(=N)N)NC(=O)[C@H](CCC(N)=O)NC(=O)[C@H](CCCNC(=N)N)NC(=O)CCCC[C@@H]1SC[C@@H]2NC(=O)N[C@@H]21)C(=O)CCl [biotin-RQRR-CMK] (Biotin-RQRR-CH2Cl)
Ki ([1]; surface of stably transfected HEK cells, probe 100–600 nM, substrate 40 µM, MT-2 assay buffer, 37 °C, 50 min, linear regression of progress curves, equation (3)): 89 nM
Ki (in words) ([1]; surface of transfected HEK cells): two-digit nanomolar Ki value
kinac/Ki (second-order rate constant of inactivation) [2]: 10,800 M^−1 s^−1

aprotinin
protection of MT-2 from labeling by biotin-RQRR-CMK [3]: labeled MT-2 fragment which was missing in HEK-MT-2 supernatants after aprotinin treatment
inhibition of MT-2 [4]: has been shown to inhibit MT-2
